From patent US7662862B2, “5-HT7 receptor antagonists” (Laboratorios Del Dr. Esteve, S.A., priority 2004, dated 2010)
Structures can show the parent of a compound that is named as a salt.

Target: Cloned Human Serotonin Receptor, Subtype 7 (h5HT7) (Homo sapiens, UniProt P34969)
Assay: Radioligand binding assay, [125I]LSD, cloned human 5-HT7 receptor expressed in CHO cells (Flashplate)
Settings: radioligand [125I]LSD 0.82 nM, 240 min at room temperature, triplicate, read-out: 5-HT7 IC-50
Procedure: Biological Assays Radioligand Binding
Radioligand binding assays were performed using the Cloned Human Serotonin Receptor, Subtype 7 (h5HT7), expressed in CHO cells, coated on Flashplate (Basic FlashPlate Cat.: SMP200) from PerkinElmer (Cat.: 6120512). The protocol assay was essentially the recommended protocol in the Technical Data Sheet by PerkinEmer Life and Analytical Sciences. The Mass membrane protein/well was typically 12 μg and the Receptor/well was about 9-10 fmoles. The Flashplate were let equilibrate at room temperature for one hour before the addition of the components of the assay mixture. The binding buffer was: 50 mM Tris-HCl, pH 7.4, containing 10 mM MgCl2, 0.5 mM EDTA and 0.5% BSA. The radioligand was [^125I]LSD at a final concentration of 0.82 nM. Nonspecific binding was determined with 50 μM of Clozapine. The assay volume was 25 μl. TopSeal-A were applied onto Flashplate microplates and they were incubated at room temperature for 240 minutes in darkness. The radioactivity were quantified by liquid scintillation spectrophotometry (Wallac 1450 Microbeta Trilux) with a count delay of 4 minutes prior to counting and a counting time of 30 seconds per well. Competition binding data were analyzed by using the LIGAND program (Munson and Rodbard, LIGAND: A versatile, computerized approach for characterization of ligand-binding systems. Anal. Biochem. 107: 220-239, 1980) and assays were performed in triplicate determinations for each point.

Sequence of Cloned Human Serotonin Receptor, Subtype 7 (h5HT7) (P34969 whole entry): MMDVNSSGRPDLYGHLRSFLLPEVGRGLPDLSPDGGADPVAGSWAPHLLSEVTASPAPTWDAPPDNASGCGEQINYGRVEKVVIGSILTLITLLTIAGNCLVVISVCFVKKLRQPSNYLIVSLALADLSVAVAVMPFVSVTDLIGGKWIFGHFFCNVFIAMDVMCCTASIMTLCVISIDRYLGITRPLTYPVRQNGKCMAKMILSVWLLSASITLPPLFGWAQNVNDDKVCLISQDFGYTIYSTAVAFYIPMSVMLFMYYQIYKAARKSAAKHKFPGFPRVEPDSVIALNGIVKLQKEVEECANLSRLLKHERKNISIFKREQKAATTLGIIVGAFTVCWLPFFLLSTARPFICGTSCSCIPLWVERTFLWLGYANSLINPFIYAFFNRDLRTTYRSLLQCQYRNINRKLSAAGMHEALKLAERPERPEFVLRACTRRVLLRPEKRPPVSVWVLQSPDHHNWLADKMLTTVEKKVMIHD

Row | Compound | IC50
1 | CCN(CCCN1CCc2cc(OC)c(OC)c3c2C1CC3)S(=O)(=O)c1cc(Cl)ccc1Cl (centres unmarked) [Compound 80, 2,5-Dichloro-N-[3-(7,8-dimethoxy-2,2a,4,5-tetrahydro-1H-3-aza-acenaphthylen-3-yl)-propyl]-N-ethyl-benzene sulfonamide hydrochloride] | 6.2 nM
2 | CCN(CCCN1CCc2cccc3c2C1CC3)S(=O)(=O)c1cccc2ccccc12 (centres unmarked) [Compound 87, Naphthalene-1-sulfonic acid ethyl-[3-(2,2a,4,5-tetrahydro-1H-3-aza-acenaphthylen-3-yl)-propyl]-amide hydrochloride] | 20.3 nM
3 | CCN(CCCN1CCc2cccc3c2C1CC3)S(=O)(=O)c1cccc(C)c1 (centres unmarked) [Compound 88, N-Ethyl-3-methyl-N-[3-(2,2a,4,5-tetrahydro-1H-3-aza-acenaphthylen-3-yl)-propyl]-benzenesulfonamide hydrochloride] | 4.5 nM
4 | CCN(CCCN1CCc2cccc3c2C1CC3)S(=O)(=O)c1ccc(C)cc1 (centres unmarked) [Compound 89, N-Ethyl-4-methyl-N-[3-(2,2a,4,5-tetrahydro-1H-3-aza-acenaphthylen-3-yl)-propyl]-benzenesulfonamide hydrochloride] | 6.7 nM
5 | CCN(CCCN1CCc2cc(OC)c(OC)c3c2C1CC3)S(=O)(=O)c1ccccc1Cl (centres unmarked) [Compound 111, 2-Chloro-N-[3-(7,8-dimethoxy-2,2a,4,5-tetrahydro-1H-3-aza-acenaphthylen-3-yl)-propyl]-N-ethyl-benzenesulfonamide hydrochloride] | 8 nM
